Common to all, as to test: DTP human tumour cell line panel, 48 h
Test [1] relates to MDA-MB-435.
Test [2] concerns DU-145 prostate.
Test [3] deals with PC-3 prostate.
For test [4], the system named is MCF7 breast.
In test [5] the test system is T-47D breast.
Test [6] relates to NCI/ADR-RES ovarian.
Test [7] has as its system BT-549 breast.
The test system of test [8] is HS 578T breast.

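Interpolation was linear, between the two tested concentrations surrounding the appropriate level; five concentrations were tested over 48 hours in 96-well plates. GI50: concentration for 50% inhibition of growth. Definition used: TGI = concentration required for complete inhibition of growth.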 Where only a bound is given, the exact number is not on record here.

With `CCC1C(C)C=NN1c1nc(N)nc(C(C#N)=Nc2ccc(N(C)C)cc2)n1` (configuration not stated), the GI50 (commonly the concentration that inhibits growth by half) in test [1] was 16.7 µM; in test [2], 9.32 µM; in test [3] it was 2.53 µM; in test [4] it was 9.76 µM; in test [5] it was 23.5 µM; in test [6], 9.88 µM. Further, the TGI (usually the concentration at which net growth stops) was more than 50 µM in test [1]; 17.4 µM in test [2]; 10.1 µM in test [3]; 17.8 µM in test [4]; more than 50 µM in test [5]; 22 µM in test [6].
For `NCCCOc1cc2ccccc2cc1C(=O)Nc1ccc(Cl)cc1OC(=O)c1cc2ccccc2cc1OCCCN`, the GI50 was 0.961 µM in test [1]; 1.66 µM in test [7]; 0.303 µM in test [2]; 0.575 µM in test [3]; 0.173 µM in test [4]; 0.282 µM in test [5]. The GI50 in test [6] is 1.17 µM. Besides, the TGI came out at 3.96 µM in test [1]; 3.1 µM in test [7]; 0.781 µM in test [2]; 1.58 µM in test [3]; 0.332 µM in test [4]; 1.02 µM in test [5]. The compound further showed a TGI in test [6] of 2.79 µM.
Regarding `COc1ccc(/C(C)=N/NC(=O)CSc2nc3ccccc3c(=O)n2CCc2ccc(S(N)(=O)=O)cc2)cc1`, the GI50 is 1.66 µM in test [7]; 1.77 µM in test [2]; 1.98 µM in test [3]; 2.24 µM in test [8]; 2.95 µM in test [4]; 11.7 µM in test [6]. Moreover, the TGI in test [7] is 3.74 µM; in test [2], 3.55 µM; in test [3] it was 4.15 µM; in test [8] it was 6.2 µM; in test [4], 11.2 µM; in test [6] it was more than 100 µM.
Regarding `COc1ccc(C(C)c2cc(OC)c(OC)c(OC)c2)cc1` (configuration not stated), the GI50 in test [7] was 0.223 µM; in test [2], 0.198 µM; in test [3], 0.165 µM; in test [8] it was 0.244 µM; in test [6], 0.0574 µM. In addition, the total growth inhibition concentration (TGI) in test [7], in test [2], in test [3], in test [8] and in test [6] was more than 50 µM in each case.
Turning to `O=S(=O)(NCCNc1nccc(-c2c(-c3ccc(F)c(O)c3)nc3sccn23)n1)c1ccc(Cl)cc1`, the GI50 in test [7] was 1.65 µM; in test [2] it was 2.9 µM; in test [3], 1.14 µM; in test [8], 1.26 µM; in test [4], 1.52 µM; in test [5], 1.08 µM. Besides, the GI50 in test [6] was 1.79 µM. Moreover, the TGI in test [7] was 14 µM; in test [2] it was more than 50 µM; in test [3], more than 50 µM; in test [8] it was 13.3 µM; in test [4], more than 50 µM; in test [5] it was 8.28 µM. In test [6], the TGI was determined as 17.5 µM.
Take `Nc1c(C(=O)Nc2ccccn2)sc2nc3c(cc12)C(O)CCC3` (configuration not stated): the GI50 in test [7] was 3.47 µM; in test [2], 1.94 µM; in test [3], 1.34 µM; in test [8], 2.07 µM; in test [4], 1.02 µM; in test [6] it was 1.83 µM. The TGI in test [7], in test [2], in test [3], in test [8], in test [4] and in test [6] was more than 50 µM in each case.
With `[N-]=[N+]=NCCCn1c2c(c3ccc([N+](=O)[O-])cc3c1=O)C(=O)c1cc3c(cc1-2)OCO3`, the GI50 in test [1] was less than 0.042 µM; in test [7], less than 0.01 µM; in test [2], 0.0342 µM; in test [3], 2.24 µM; in test [4] it was 0.158 µM; in test [5] it was 0.656 µM. In test [6], the 50% growth inhibitory concentration (GI50) is less than 0.0114 µM. In addition, the TGI in test [1] is 1.49 µM; in test [7] it was less than 0.01 µM; in test [2], 0.271 µM; in test [3], more than 100 µM; in test [4] it was 7.68 µM; in test [5], more than 100 µM. The TGI in test [6] is less than 0.041 µM.
As to `C=C1c2ccccc2C(=O)c2c1c1c(C(=O)OC)c(OC(=O)OCc3ccc([N+](=O)[O-])cc3)ccc1n2Cc1ccccc1`, the GI50 in test [1] was 23.5 µM; in test [7] it was 3.21 µM; in test [2] it was 3.62 µM; in test [3] it was 0.329 µM; in test [8], 4.69 µM; in test [4], 13.4 µM. Also, the GI50 in test [6] was 3.46 µM. The TGI in test [1] was more than 100 µM; in test [7], 9.48 µM; in test [2] it was 33.5 µM; in test [3], 4.4 µM; in test [8] it was more than 100 µM; in test [4], 43.2 µM. The compound further gave a TGI in test [6] of 15 µM.

Values taken from PubChem BioAssay (NCI).
